# Laboratory results published in patent publication US5658928A, “Amino acid derivatives” (Hoffmann-La Roche Inc., priority 1991, dated 1997).
# Legend:
# [1] = target: T1, fibrinogen receptor, glycoprotein IIb/IIIa (Homo sapiens, UniProt P05106+P08514); test: inhibition of the binding of fibrinogen to the immobilized fibrinogen receptor, glycoprotein IIb/IIIa (ELISA); settings: concentration required to inhibit the binding of fibrinogen to the immobilized receptor by 50%
# T1 construct: The glycoprotein IIb/IIIa is obtained from Triton X-100 extracts of human blood platelets; from tissue; host or cells: human blood platelets (Triton X-100 extract)
# Protocol: The glycoprotein IIb/IIIa is obtained from Triton X-100 extracts of human blood platelets and purified by lectin affinity chromatography (Analytical Biochemistry 151, 1985, 169-177) and chromatography on an Arg-Gly-Asp-Ser affinity column (Science 231, 1986, 1559-62). The thus-obtained receptor protein is bonded to microtiter plates. The specific binding of fibrinogen to the immobilized receptor is determined with the aid of an ELISA system ("enzyme-linked immunosorbent assay"). The IC50 values hereinafter correspond to that concentration of the test substance which is required to inhibit the binding of fibrinogen to the immobilized receptor by 50%: […]
# [2] = in vivo; settings: iv, i.v. in the mouse
# Text: These compounds have low toxicity.
# T1 sequence (P08514 32-887 limits assumed): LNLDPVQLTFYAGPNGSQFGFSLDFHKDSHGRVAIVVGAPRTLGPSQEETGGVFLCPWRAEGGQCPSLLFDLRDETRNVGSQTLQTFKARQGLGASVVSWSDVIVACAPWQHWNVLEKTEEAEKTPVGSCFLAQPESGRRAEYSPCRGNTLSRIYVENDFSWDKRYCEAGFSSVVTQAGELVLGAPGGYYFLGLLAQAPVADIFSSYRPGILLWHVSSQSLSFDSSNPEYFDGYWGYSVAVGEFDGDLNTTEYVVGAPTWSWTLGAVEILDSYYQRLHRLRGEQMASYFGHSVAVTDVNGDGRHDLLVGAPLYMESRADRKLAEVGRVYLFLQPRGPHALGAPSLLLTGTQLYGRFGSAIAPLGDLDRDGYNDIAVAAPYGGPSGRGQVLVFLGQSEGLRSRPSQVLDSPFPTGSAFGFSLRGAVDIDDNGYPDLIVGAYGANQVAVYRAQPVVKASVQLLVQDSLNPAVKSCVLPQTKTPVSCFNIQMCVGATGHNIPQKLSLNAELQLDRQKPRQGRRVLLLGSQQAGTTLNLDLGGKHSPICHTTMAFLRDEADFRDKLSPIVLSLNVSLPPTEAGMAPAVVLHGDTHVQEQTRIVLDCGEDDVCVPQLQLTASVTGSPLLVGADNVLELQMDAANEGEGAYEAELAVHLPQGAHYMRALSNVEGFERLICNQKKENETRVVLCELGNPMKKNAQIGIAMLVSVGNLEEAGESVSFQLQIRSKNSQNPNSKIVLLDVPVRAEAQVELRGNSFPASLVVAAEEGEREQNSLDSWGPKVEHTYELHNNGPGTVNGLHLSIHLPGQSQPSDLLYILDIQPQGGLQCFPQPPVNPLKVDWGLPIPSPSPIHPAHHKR
# T1 sequence (P08514 891-1039 partner limits assumed): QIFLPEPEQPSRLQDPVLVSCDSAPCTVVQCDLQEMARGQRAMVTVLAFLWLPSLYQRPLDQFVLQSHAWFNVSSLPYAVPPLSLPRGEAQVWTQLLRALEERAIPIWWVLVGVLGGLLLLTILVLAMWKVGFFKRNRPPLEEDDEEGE
# T1 sequence (P05106 27-788): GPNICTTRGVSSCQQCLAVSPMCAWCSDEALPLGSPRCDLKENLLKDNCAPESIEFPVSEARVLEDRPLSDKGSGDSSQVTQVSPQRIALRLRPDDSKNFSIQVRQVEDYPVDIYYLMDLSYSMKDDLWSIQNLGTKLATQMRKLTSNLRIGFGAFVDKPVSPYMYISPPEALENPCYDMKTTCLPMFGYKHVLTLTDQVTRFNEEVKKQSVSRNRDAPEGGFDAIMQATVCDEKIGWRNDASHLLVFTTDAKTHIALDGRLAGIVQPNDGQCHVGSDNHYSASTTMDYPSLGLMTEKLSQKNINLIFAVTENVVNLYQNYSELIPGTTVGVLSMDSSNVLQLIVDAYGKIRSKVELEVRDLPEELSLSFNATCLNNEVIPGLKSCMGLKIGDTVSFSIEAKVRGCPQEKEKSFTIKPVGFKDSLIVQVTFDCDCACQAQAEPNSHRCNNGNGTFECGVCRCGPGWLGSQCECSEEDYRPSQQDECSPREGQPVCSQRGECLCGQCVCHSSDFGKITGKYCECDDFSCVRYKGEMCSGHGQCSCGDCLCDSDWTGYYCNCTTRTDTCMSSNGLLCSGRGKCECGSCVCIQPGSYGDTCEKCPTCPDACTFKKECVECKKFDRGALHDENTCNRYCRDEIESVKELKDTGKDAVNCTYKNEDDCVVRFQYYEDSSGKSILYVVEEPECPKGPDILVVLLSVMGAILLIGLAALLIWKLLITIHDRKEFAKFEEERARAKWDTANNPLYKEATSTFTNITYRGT
Compound,IC50 [1] [µM],LD50 [2] [mg/kg]
"N=C(N)c1ccc(C(=O)NCC(=O)N2CCC(OCC(=O)O)CC2)cc1 [Example 1, [[1-[N-(p-amidinobenzoyl)glycyl]-4-piperidinyl]oxy]acetic acid]",10,–
"C[C@H](NC(=O)c1ccc(C(=N)N)cc1)C(=O)N1CCC(OCC(=O)O)CC1 [Example 3, [[1-[N-(p-amidinobenzoyl)-L-alanyl]-4-piperidinyl]oxy]acetic acid]",1.7,250
"C[C@H](NC(=O)c1ccc(C(=N)N)cn1)C(=O)N1CCC(OCC(=O)O)CC1 [Example 5, [[1-[N-[(5-amidino-2-pyridyl)carbonyl]-L-alanyl]-4-piperidinyl]oxy]acetic acid]",1,500
"N=C(N)c1ccc(C(=O)N[C@@H](Cc2ccc(O)cc2)C(=O)N2CCC(OCC(=O)O)CC2)cc1 [Example 14, [[1-[N-(p-amidinobenzoyl)-L-tyrosil]-4-piperidinyl]oxy]acetic acid]",–,250

# Continued, in another order:
IC50 [1] [µM],Compound,LD50 [2] [mg/kg]
140,"C[C@@H](NC(=O)c1ccc(C(=N)N)cc1)C(=O)N1CCC(OCC(=O)O)CC1 [Example 4, [[1-[N-(p-amidinobenzoyl)-D-alanyl]-4-piperidinyl]oxy]acetic acid]",–
27,"CC(C)[C@H](NC(=O)c1ccc(C(=N)N)cc1)C(=O)N1CCC(OCC(=O)O)CC1 [Example 6, [[1-[N-(p-amidinobenzoyl)-L-valyl]-4-piperidinyl]oxy]-acetic acid]",–
33,"CC(C)C[C@H](NC(=O)c1ccc(C(=N)N)cc1)C(=O)N1CCC(OCC(=O)O)CC1 [Example 7, [[1-[N-(p-amidinobenzoyl)-L-leucyl]-4-piperidinyl]oxy]acetic acid]",–
